Here are results for 6 compounds from patent US20260256816A1, “PHARMACEUTICAL COMPOSITION FOR PREVENTING OR TREATING BRAIN TUMOR” (ASTRION INC., priority 2023, published 2026).

Each structure is given as a SMILES string.

Assay [1] has as its system U87-MG cells. Kind of assay: Cell migration assay (SPLScar Block). It is filed as cell-based. The settings on record: Homo sapiens, U-87 MG, 24 hours, FIG. 3, read-out: inhibition of cell migration compared to the untreated control. On the procedure:
Human glioblastoma cell line U87-MG cells were seeded at a density of 8×10^4 cells/well on a SPLScar Block (SPL) plate and cultured for 24 hours. After 24 hours, the block was removed, and the cells were treated with the compound AON-MG23-01 or AON-MG23-02 of the present invention, and cultured at 37° C. in a CO2 incubator for 24 hours. The compound of the present invention was treated at concentrations of 0, 1, 2, and 4 μM. Images were taken before and after culture, and the distance of cell migration was measured using Image J software. Based on the results, whether the cell migration was inhibited was analyzed.

For assay [2], the system named is U87-MG cells. Briefly: Matrigel Transwell invasion assay (metastasis inhibition). It counts as cell-based, human. Particulars: for degree of penetration into Matrigel compared to the untreated control: 24 hours. On the procedure: A human glioblastoma cell line U87-MG was seeded at a density of 8×10^4 cells/well on Matrigel-coated filters (Transwell invasion chambers, Corning), and the cells were then treated with the compound (AON-MG23-01 or AON-MG23-02; each at 0, 1, 2, and 4 μM) of the present invention, and cultured at 37° C. in a CO2 incubator for 24 hours. After the culturing was completed, the cells were fixed and stained using the Diff-Quick Stain kit (Sysmex, Kobe, Japan). Images of the stained cells were taken under a microscope, the cells were counted using Image J software, and statistical analysis was then performed.
A human glioblastoma cell line U87-MG was seeded at a density of 6×10^4 cells/well on the top of a Matrigel-coated filter (Transwell invasion chambers, Corning), treated with 4 μM of the compound AON-MG23-02 of the present invention, 4 μM of the EGFR inhibitor Osimertinib, 100 μM of the ANO1 inhibitor CaCCinh-A01, or a combination of 4 μM of Osimertinib and 100 μM of CaCCinh-A01, and then cultured at 37° C. in a CO2 incubator for 16 hours. After the culturing was completed, the cells were fixed and stained using a Diff-Quick stain kit (Sysmex, Kobe, Japan). Images of the stained cells were taken under a microscope, the cells were counted using Image J software, and statistical analysis was then performed.
A human glioblastoma cell line U87-MG was seeded at a density of 8×10^4 cells/well on the top of a Matrigel-coated filter (Transwell invasion chambers, Corning), and then treated with 0, 8, 16, and 32 μM of each of the compound derivatives AON-MG23-05, AON-MG23-06, AON-MG23-07, and AON-MG23-08 of the present invention, and cultured at 37° C. in a CO2 incubator for 24 hours. After the culturing was completed, the cells were fixed and stained using a Diff-Quick stain kit (Sysmex, Kobe, Japan). Images of the stained cells were taken under a microscope, the cells were counted using Image J software, and statistical analysis was then performed.

Assay [3] relates to U87-MG cells. Kind of assay: CCK assay, cell proliferation of human glioblastoma cells. The settings on record: 0, 1, 2, 4 μM, 48 hours, FIG. 2. It counts as cell-based. As for the experimental part: Human glioblastoma cell line U87-MG cells were seeded at a density of 1×10^4 cells/well in a 96-well plate and cultured for 24 hours. Thereafter, the cells were treated with DMSO as a control and the compound AON-MG23-01 or AON-MG23-02 of the present invention, and then cultured for 48 hours. The compound of the present invention was treated at various concentrations of 0, 1, 2, and 4 μM. 10 μL of a CCK reagent was added and reacted for an hour, and the absorbance was then measured at 450 nm.

Another assay deals with ANO1. Briefly: Western blot of ANO1 protein expression in glioblastoma cell line. It counts as cell-based, human. The settings on record: U87-MG, 48 hours; for expression of ANO1 protein compared to the untreated control: 0, 8, 16, 32 μM, FIGS. 9A to 9D. As for the experimental part: (§1) It was determined whether the compound of the present invention affects the expression of ANO1 and EGFR proteins in a glioblastoma cell line. The human glioblastoma cell line U87-MG was seeded at a density of 1×10^6 cells in a 60 mm dish, and cultured for 24 hours, and the cells were then treated with the compound (AON-MG23-01 or AON-MG23-02; each at 0, 1, 2, and 4 μM) of the present invention, and cultured for 48 hours. The cultured cells were harvested and the harvested cells were lysed for Western blotting. An anti-ANO1 antibody (Abcam, ab53212), an anti-pEGFR antibody (Cell Signaling, #4407S), an anti-EGFR antibody (Cell Signaling, #4267S), and an anti-α-tubulin antibody (Santacruz, #SC-5286) were used as the antibodies for Western blotting. Protein concentration was quantified using the BSA method (a protein quantitation assay, a bovine serum albumin assay) (Pierce, Cat. 23225). After the cells were lysed, an equal amount (10 μg) of the proteins obtained from the lysed cells was subjected to 10% SDS-PAGE to separate the proteins depending on their molecular weights, transferred to a PVDF membrane (Bio-Rad), and then treated with a blocking buffer (5% skim milk in a Tris-buffered saline (TBS) buffer containing 0.1% Tween 20; TBS-T) at room temperature for an hour. Thereafter, the PVDF membrane was treated with the primary antibody, and reacted at 4° C. for 16 hours. […] The amount of each protein was quantified and analyzed using Image J software.
(§2) The inhibitory effects of the compound AON-MG23-02 of the present invention, the EGFR inhibitor Osimertinib, and the ANO1 inhibitor CaCCinh-A01 on the expression of ANO1, EGFR, and pEGFR proteins in a glioblastoma cell line were compared. […] Protein concentration was quantified using the BSA method (a protein quantitation assay, a bovine serum albumin assay) (Pierce, Cat. 23225). […] The amount of each protein was quantified and analyzed using Image J software. […]

A further assay relates to EGFR. Briefly: Western blot of EGFR protein expression in glioblastoma cell line. It counts as cell-based, human. The settings on record: U87-MG, 48 hours; for expression of EGFR protein compared to the untreated control: 0, 8, 16, 32 μM, FIGS. 9A to 9D. As for the experimental part: as §1, §2
A general note: A western blot detects proteins with antibodies after separation by electrophoresis.

For another assay, the system named is pEGFR. Kind of assay: Western blot of pEGFR protein expression in glioblastoma cell line. It is filed as cell-based, human. Particulars: U87-MG; 4 μM; 48 hours; vs 2 μM Osimertinib, 100 μM CaCCinh-A01, combination; FIGS. 8A, 8B. As for the experimental part: The inhibitory effects of the compound AON-MG23-02 of the present invention, the EGFR inhibitor Osimertinib, and the ANO1 inhibitor CaCCinh-A01 on the expression of ANO1, EGFR, and pEGFR proteins in a glioblastoma cell line were compared. A human glioblastoma cell line U87-MG was seeded at a density of 100×10^4 cells/dish in a 60 mm dish, and cultured for 24 hours. Thereafter, the cells were treated with 4 μM of AON-MG23-02, 2 μM of the EGFR inhibitor Osimertinib, 100 μM of the ANO1 inhibitor CaCCinh-A01, or a combination of 2 μM of Osimertinib and 100 μM of CaCCinh-A01, and cultured for 48 hours. The cultured cells were harvested and the harvested cells were lysed for Western blotting. An anti-ANO1 antibody (Abcam, ab53212), an anti-pEGFR antibody (Cell Signaling, #4407S), an anti-EGFR antibody (Cell Signaling, #4267S), and an anti-ACTIN antibody (sigma, #A2066) were used as antibodies for Western blotting. Protein concentration was quantified using the BSA method (a protein quantitation assay, a bovine serum albumin assay) (Pierce, Cat. 23225). […] The amount of each protein was quantified and analyzed using Image J software.

[4] abbreviates: 0, 8, 16, 32 μM, FIGS. 10A, 10B.
[5] abbreviates: 4 μM, vs 2 μM Osimertinib, 100 μM CaCCinh-A01, combination, FIGS. 8A, 8B.

Regarding `COc1cc(N2CCC(N3CCN(C)CC3)CC2)ccc1Nc1ncc(Cl)c(Nc2ccccc2N(C2CC2)S(C)(=O)=O)n1` [AON-MG23-01, N-(2-((5-chloro-2-((2-methoxy-4-(4-(4-methylpiperazin-1-yl)piperidin-1-yl)phenyl)amino)pyrimidin-4-yl)amino)phenyl)-N-cyclopropylmethanesulfonamide], the inhibition at 4 µM in the assay with U87-MG cells [1] was more than 65%. For the same compound, in the assay with U87-MG cells [2] (0, 1, 2, 4 μM, FIG. 4), the “degree of penetration into Matrigel compared to the untreated control” value (shortened to “degree … compared to the untreated control”) is recorded as “reduced degree of penetration into Matrigel”. Further, the “proliferation of U87-MG cells (CCK assay)” value in the assay on U87-MG cells [3] is given as “inhibits the proliferation of U87-MG cells”.
In the case of `NC(=O)N(CCc1ccc(CN2Cc3ccccc3C2=O)cc1)Cc1ccc2ccccc2c1` [AON-MG23-08, 1-(naphthalen-2-ylmethyl)-1-(4-((1-oxoisoindolin-2-yl)methyl)phenethyl)urea], in the assay with ANO1, the “expression of ANO1 protein compared to the untreated control” value is reported as “reduced expression”. The “expression of EGFR protein compared to the untreated control” value with EGFR is “reduced expression”. Also, the “degree … compared to the untreated control” value in the assay on U87-MG cells [2] (setting [4]) is given as “reduced degree of penetration into Matrigel”.
In the case of `O=C1c2ccccc2CN1Cc1ccc(CCP(=O)(Cc2ccc3ccccc3c2)Cc2ccc3ccccc3c2)cc1` [AON-MG23-07, 2-(4-(2-(bis(naphthalen-2-ylmethyl)phosphoryl)ethyl)benzyl)isoindolin-1-one], the “degree … compared to the untreated control” value in the assay with U87-MG cells [2] (setting [4]) is listed as “reduced degree of penetration into Matrigel”.
For the compound `O=C1c2ccccc2CN1Cc1ccc(CCN(CCO)Cc2ccc3ccccc3c2)cc1` [AON-MG23-05, 2-(4-(2-((2-hydroxyethyl)(naphthalen-2-ylmethyl)amino)ethyl)benzyl)isoindolin-1-one], the “expression of ANO1 protein compared to the untreated control” value in the assay on ANO1 was “reduced expression”. Also, the “expression of EGFR protein compared to the untreated control” value in the assay on EGFR is listed as “reduced expression”. The “degree … compared to the untreated control” value in the assay with U87-MG cells [2] (setting [4]) is “reduced degree of penetration into Matrigel”.
Turning to `COc1cc(N2CCC(N(C)C)CC2)ccc1Nc1ncc(Cl)c(Nc2ccccc2N(C2CC2)S(C)(=O)=O)n1` [AON-MG23-02, N-(2-((5-chloro-2-((4-(4-(dimethylamino)piperidin-1-yl)-2-methoxyphenyl)amino)pyrimidin-4-yl)amino)phenyl)-N-cyclopropylmethanesulfonamide], the “expression of ANO1 protein compared to untreated control, EGFR inhibitor, ANO1 inhibitor and combination groups” value in the assay with ANO1 (setting [5]) is recorded as “reduces the expression”. Moreover, in the assay on U87-MG cells [1], the inhibition at 4 µM was more than 65%. For the same compound, the “expression of EGFR protein compared to untreated control, EGFR inhibitor, ANO1 inhibitor and combination groups” value with EGFR (setting [5]) is “reduces the expression”. Moreover, the “expression of pEGFR protein compared to untreated control, EGFR inhibitor, ANO1 inhibitor and combination groups” value in the assay on pEGFR is “reduces the expression”. In addition, in the assay on U87-MG cells [2] (0, 1, 2, 4 μM, FIG. 4), the “degree … compared to the untreated control” value is “reduced degree of penetration into Matrigel”. Moreover, in the assay on U87-MG cells [2] (4 μM, 16 hours, vs 4 μM Osimertinib, 100 μM CaCCinh-A01, FIGS. 7A, 7B), the “degree of penetration into Matrigel compared to untreated control, EGFR inhibitor-treated group and ANO1 inhibitor-treated group” value is on record as “reduced degree of penetration into Matrigel”. The “proliferation of U87-MG cells (CCK assay)” value in the assay on U87-MG cells [3] is given as “inhibits the proliferation of U87-MG cells”.
On to `CCN(Cc1ccc2ccccc2c1)CC(O)c1ccc(CN2Cc3ccccc3C2=O)cc1` (stereo not drawn) [AON-MG23-06, 2-(4-(2-(ethyl(naphthalen-2-ylmethyl)amino)-1-hydroxyethyl)benzyl)isoindolin-1-one], for which the “degree … compared to the untreated control” value in the assay on U87-MG cells [2] (setting [4]) was “reduced degree of penetration into Matrigel”.
